Laboratory results as given in patent publication US20090305960A1, “Melanocortin Receptor-Specific Peptides for Treatment of Obesity / 669” (Palatin Technologies, Inc, priority 2008, published 2009).
Where “and” joins values, the source holds several entries; their conditions need not be identical. Equal entries are not always repeated. Where two headings read alike, the source gives them in different places. Each block holds one molecule with its values, some of them ahead of it. *1 amine or outer side, *2 acyl side, *3 side chain or, on linkers, in order; H or OH if unused. Where a SMILES comes first, the peptide text is derived from it. Bridges are numbered along the chain shown (N, C = ends). [ ]: non-standard residue; d: D form. Ser(Bzl) = O-benzyl-L-serine, O=C([C@H](COCc1ccccc1)N[*:1])[*:2]; Orn = NCCC[C@H](N)C(=O)O

Tests used:
hMC4-R [1] = target: T1, hMC4-R (Homo sapiens, UniProt P32245); test: Competitive binding assay using Eu-NDP-α-MSH, MC4-R; details: for selectivity for MC4-R (binding against MC1-R, MC3-R and MC4-R): in words
T1 construct: expressed in transfected cells; host or cells: HEK-293 (membrane homogenates)
Protocol: Competitive inhibition binding assays were performed using membrane homogenates prepared from HEK-293 cells that express recombinant hMC1-R, hMC3-R, hMC4-R, or hMC5-R. In the examples that follow, all MC1-R, MC3-R, MC4-R and MC5-R values are for human recombinant receptors. Assays were performed in 96 well GF/B Millipore multiscreen filtration plates (MAFB NOB10) pre-coated with 0.5% bovine serum albumin (Fraction V). Membrane homogenates were incubated with 0.1 nM [1^125]-NDP-α-MSH (Perkin Elmer) and increasing concentrations of test peptides of the present invention in buffer containing 25 mM HEPES buffer (pH 7.5) with 100 mM NaCl, 2 mM CaCl2, 2 mM MgCl2, 0.3 mM 1,10-phenanthroline, and 0.1% bovine serum albumin. After incubation for 90 minutes at 37° C., the assay mixture was filtered and the membranes washed with 1 mL of cold 1×PBS wash buffer per well. 35 μL of scintillation cocktail was added to each well and the plates counted on a Microbeta counter for 1 minute per well. Non-specific binding was measured by inhibition of binding of [I^125]-NDP-α-MSH in the presence of 1 μM NDP-α-MSH. Maximal specific binding (100%) was defined as the difference in radioactivity (cpm) bound to cell membranes in the absence and presence of 1 μM NDP-α-MSH. Radioactivity (cpm) obtained in the presence of test compounds was normalized with respect to 100% specific binding to determine the percent inhibition of [I^125]-NDP-α-MSH binding. Each assay was conducted in duplicate and actual mean values are described, with results less than 0% reported as 0%. Ki values for test peptides of the present invention were determined using Graph-Pad Prism® curve-fitting software.
(§1) Alternatively, a competitive inhibition binding assay was performed employing Eu-NDP-α-MSH (PerkinElmer Life Sciences catalog No. AD0225) with determination by time-resolved fluorometry (TRF) of the lanthanide chelate. In comparison studies with [I^125]-NDP-α-MSH, the same values, within experimental error ranges, were obtained for percent inhibition and Ki. Typically competition experiments to determine Ki values were conducted by incubating membrane homogenates prepared from HEK-293 cells that express recombinant hMC4-R with 9 different concentrations of test compounds of interest and 1 nM of Eu-NDP-α-MSH in a solution containing 25 mM HEPES buffer with 100 mM NaCl, 2 mM CaCl2, 2 mM MgCl2, 0.1% BSA, and 0.3 mM 1,10-phenanthroline. After incubation for 90 minutes at 37° C., the reaction was stopped by filtration over AcroWell 96-well filter plates (Pall Life Sciences). The filter plates were washed 4 times with 200 μL of ice-cold phosphate-buffered saline. DELFIA Enhancement solution (PerkinElmer Life Sciences) was added to each well. The plates were incubated on a shaker for 15 minutes and read at 340 nm excitation and 615 nm emission wavelengths. Each assay was conducted in duplicate and mean values were utilized. Ki values were determined by curve-fitting with Graph-Pad Prism® software using a one-site fixed-slope competition binding model.

[2] = Induction of penile erection in male rats; format: in vivo, rat; details: for increase in observed spontaneous erections: in words
Protocol: The ability of peptides of the present invention to induce penile erection (PE) in male rats were evaluated with selected peptides. Male Sprague-Dawley rats weighing 250-300 g were kept on a 12 hour on/off light cycle with food and water ad libitum. All behavioral studies were performed between 9 a.m. and 4 p.m. Groups of 6-8 rats were administered peptides at a variety of doses via an IV route. Immediately after treatment, rats were placed into individual polystyrene cages (27 cm long, 16 cm wide, and 25 cm high) for behavioral observation, typically by remote video monitoring. Rats are observed for one hour, and the number of yawns, grooming bouts and PEs are recorded in 10-minute bins.

[3] = Food intake and body weight change in rats; format: in vivo, rat; details: for food intake / rate of change in body weight: rat feeding studies, overall finding in words; for decrease in food consumption compared to control: rats
Protocol: Change in food intake and body weight was evaluated for selected peptides administered by intravenous (IV) or subcutaneous injection routes. Male Sprague-Dawley rats were obtained from Hilltop Lab Animals, Inc. (Scottsdale, Pa.) or other vendors. Animals were individually housed in conventional polystyrene hanging cages and maintained on a controlled 12 hour on/off light cycle. Water and pelleted food was provided ad libitum. The rats were dosed IV with vehicle or selected peptides (0.3 to 1.0 mg/kg), or dosed subcutaneously with vehicle or selected peptides (doses up to 30 mg/kg). The changes in body weight and food intake for the 24 hour period after dosing was determined. The changes in body weight and food intake for the 48 hour and 72 hour periods after dosing can also be measured to determine reversal of changes in body weight and food intake effects back to baseline levels.

hMC4-R [4] = target: T1, hMC4-R; test: Assay for agonist activity (cAMP accumulation in HEK-293 cells expressing hMC4-R); format: cell-based
Protocol: Accumulation of intracellular cAMP was examined as a measure of the ability of the peptides of the present invention to elicit a functional response in HEK-293 cells that express MC4-R. Confluent HEK-293 cells that express recombinant hMC4-R were detached from culture plates by incubation in enzyme-free cell dissociation buffer. Dispersed cells were suspended in Earle's Balanced Salt Solution containing 10 mM HEPES (pH 7.5), 1 mM MgCl2, 1 mM glutamine, 0.5% albumin and 0.3 mM 3-isobutyl-1-methyl-xanthine (IBMX), a phosphodiesterase inhibitor. The cells were plated in 96-well plates at a density of 0.5×10^5 cells per well and pre-incubated for 10 minutes. Cells were exposed for 15 minutes at 37° C. to peptides of the present invention dissolved in DMSO (final DMSO concentration of 1%) at a concentration range of 0.05-5000 nM in a total assay volume of 200 μL. NDP-α-MSH was used as the reference agonist. cAMP levels were determined by an HTRF® cAMP cell-based assay system from Cisbio Bioassays utilizing cryptate-labeled anti-cAMP and d2-labeled cAMP, with plates read on a Perkin-Elmer Victor plate reader at […]. Data analysis was performed by nonlinear regression analysis with Graph-Pad Prism® software. The maximum efficacies of the test peptides of the present invention were compared to that achieved by the reference melanocortin agonist NDP-α-MSH.

[5] = target: human melanocortin-4 receptor (recombinant hMC4-R) (human) (UniProt P32245); test: cell-based or functional assay
[6] = target: T2, human melanocortin-4 receptor (recombinant hMC4-R) (human, UniProt P32245 1-332); test: cell-based or functional assay
[7] = target: T3, human melanocortin-3 receptor (recombinant hMC3-R) (human, UniProt P41968 1-323); test: competitive binding vs labelled NDP-α-MSH, hMC3-R membranes
T3 construct: whole, on cells; Membrane homogenates of HEK-293 cells expressing the recombinant receptor

[8] = target: T2, human melanocortin-4 receptor …; test: competitive binding vs Eu-NDP-α-MSH, TRF, hMC4-R HEK-293 membranes
Protocol: as §1, with “[I¹²⁵]-NDP-α-MSH,” for “[I^125]-NDP-α-MSH,”, “Typically competition experiments to determine Ki values were conducted by incubating membrane homogenates prepared from HEK-293 cells that express recombinant hMC4-R with 9 different concentrations of test compounds of interest and 1 nM of Eu-NDP-α-MSH in a solution containing 25 mM HEPES buffer with 100 mM NaCl, 2 mM CaCl2, 2 mM MgCl2, 0.1% BSA, and 0.3 mM 1,10-phenanthroline.” left out
Peptides of the following structures were synthesized by the general methods described above, and except where indicated MC4-R Ki values for each peptide were determined in competitive binding assays using Eu-NDP-α-MSH as described in 7.2 above.

[9] = competitive binding using Eu-NDP-α-MSH, human recombinant receptor, read-out: MC4-R Ki
[10] = competitive studies using Eu-NDP-α-MSH / NDP-α-MSH, average of several studies, read-out: Ki value at MC4-R

T1 sequence (P32245 whole entry): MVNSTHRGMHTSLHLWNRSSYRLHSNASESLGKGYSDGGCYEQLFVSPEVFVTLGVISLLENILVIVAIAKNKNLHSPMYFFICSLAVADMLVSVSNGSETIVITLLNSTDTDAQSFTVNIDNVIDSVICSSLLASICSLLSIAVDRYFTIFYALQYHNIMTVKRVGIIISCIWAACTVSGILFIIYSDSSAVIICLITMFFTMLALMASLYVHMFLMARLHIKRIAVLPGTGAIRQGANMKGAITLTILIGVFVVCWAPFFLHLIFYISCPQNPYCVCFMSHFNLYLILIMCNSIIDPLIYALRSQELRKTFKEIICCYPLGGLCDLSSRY
T2 sequence (P32245 whole entry): as above
human melanocortin-4 receptor (recombinant hMC4-R) (human), sequence (P32245 whole entry): as above
T3 sequence (P41968 whole entry): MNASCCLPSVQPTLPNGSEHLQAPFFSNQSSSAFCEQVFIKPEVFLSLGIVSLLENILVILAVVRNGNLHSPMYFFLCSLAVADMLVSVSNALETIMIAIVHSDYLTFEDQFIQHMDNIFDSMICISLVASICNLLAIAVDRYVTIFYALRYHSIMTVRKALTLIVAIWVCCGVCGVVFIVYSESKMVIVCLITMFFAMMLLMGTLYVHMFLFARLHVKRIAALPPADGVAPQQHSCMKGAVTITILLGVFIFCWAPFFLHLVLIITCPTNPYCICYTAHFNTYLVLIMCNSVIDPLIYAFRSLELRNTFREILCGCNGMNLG

Ki (hMC4-R [1]; [9]): 13 nM
Molecule: CC(=O)N[C@@H](CCCNC(=N)N)C(=O)N[C@H]1CCCNC(=O)CC[C@@H](C(N)=O)NC(=O)[C@H](Cc2c[nH]c3ccccc23)NC(=O)[C@H](CCCNC(=N)N)NC(=O)[C@@H](Cc2ccccc2)NC(=O)[C@@H]2CCCN2C1=O [Compound 5, Ac-Arg-cyclo(Orn-Pro-D-Phe-Arg-Trp-Glu)-NH2] (Ac-R[Orn]P[dF]RWE-NH2; lactam 2-7)

Molecule: CCCC[C@H](NC(C)=O)C(=O)N[C@H]1CC(=O)NCCCC[C@@H](C(=O)O)NC(=O)[C@H](Cc2c[nH]c3ccccc23)NC(=O)[C@H](CCCN=C(N)N)NC(=O)[C@@H](Cc2ccccc2)NC(=O)[C@H](Cc2cnc[nH]2)NC1=O [bremelanotide, Ac-Nle-cyclo(Asp-His-D-Phe-Arg-Trp-Lys)-OH, reference compound]
average spontaneous erections per rat in one hour ([2]; IV, 1 mg/kg): 4.875±0.990 spontaneous erections per rat in one hour and 3.167±0.79 spontaneous erections per rat in one hour
average spontaneous erections per rat in one hour ([2]; positive control, dose not stated in this study): 3.714±0.680 spontaneous erections per rat in one hour

Ki (hMC4-R [1]; [10]): 11 nM
selectivity for MC4-R (binding against MC1-R, MC3-R and MC4-R) (hMC4-R [1]): highly selective for MC4-R
Molecule: CC(=O)N[C@@H](CCCNC(=N)N)C(=O)N[C@H]1CC(=O)NCCCC[C@@H](C(N)=O)NC(=O)[C@H](Cc2c[nH]c3ccccc23)NC(=O)[C@H](CCCNC(=N)N)NC(=O)[C@@H](Cc2ccccc2)NC(=O)[C@@H]2CCCN2C1=O [Compound 3, Ac-Arg-cyclo(Asp-Pro-D-Phe-Arg-Trp-Lys)-NH2]
food intake [3]: reduce food intake
rate of change in body weight [3]: decrease the rate of change in body weight
decrease in food consumption compared to control ([3]; 0.3 mg/kg, 0-2 hour period): statistically significant
decrease in food consumption compared to control ([3]; 0.3 mg/kg, 0-4 hour period): statistically significant
decrease in food consumption compared to control ([3]; 0.3 mg/kg, 0-20 hour period): statistically significant
decrease in food consumption compared to control ([3]; 1 mg/kg, 0-2 hour period): statistically significant
decrease in food consumption compared to control ([3]; 1 mg/kg, 0-4 hour period): statistically significant
decrease in food consumption compared to control ([3]; 1 mg/kg, 0-20 hour period): statistically significant
average spontaneous erections per rat in one hour ([2]; IV, 0.3 mg/kg): 1.143±0.553 spontaneous erections per rat in one hour
average spontaneous erections per rat in one hour ([2]; IV, 1 mg/kg): 1.286±0.421 spontaneous erections per rat in one hour
increase in observed spontaneous erections ([2]; IV): not found to result in a statistically significant increase

Ki (hMC4-R [1]; [10]): 12 nM
selectivity for MC4-R (binding against MC1-R, MC3-R and MC4-R) (hMC4-R [1]): highly selective for MC4-R
Emax (hMC4-R [4]; HEK293, NDP-α-MSH is 100%, read-out: intrinsic activity at MC4-R): 38%
intrinsic activity at MC4-R (hMC4-R [4]; NDP-α-MSH is 100%): 47%
EC50 (hMC4-R [4]; functional studies at MC4-R, average of several studies): 2 nM
functional classification at MC4-R (hMC4-R [4]; in words): partial agonist
Molecule: CC(=O)N[C@@H](CCCNC(=N)N)C(=O)N[C@H]1CC(=O)NCCCC[C@@H](C(=O)O)NC(=O)[C@H](Cc2c[nH]c3ccccc23)NC(=O)[C@H](CCCNC(=N)N)NC(=O)[C@@H](Cc2ccccc2)NC(=O)[C@H](COCc2ccccc2)NC1=O [Compound 1, Ac-Arg-cyclo(Asp-Ser(Bzl)-D-Phe-Arg-Trp-Lys)-OH]
food intake [3]: reduce food intake
rate of change in body weight [3]: decrease the rate of change in body weight
decrease in food consumption compared to control ([3]; 0.3 mg/kg, 0-4 hour period): statistically significant
decrease in food consumption compared to control ([3]; 1 mg/kg, 0-2 hour period): statistically significant
decrease in food consumption compared to control ([3]; 1 mg/kg, 0-4 hour period): statistically significant
decrease in food consumption compared to control ([3]; 1 mg/kg, 0-20 hour period): statistically significant
average spontaneous erections per rat in one hour ([2]; IV, 1 mg/kg): 1.5±0.378 spontaneous erections per rat in one hour
increase in observed spontaneous erections ([2]; IV): not found to result in a statistically significant increase

Ki (hMC4-R [1]; [9]): 13 nM
Molecule: CC(=O)N[C@@H](CCCNC(=N)N)C(=O)N[C@H]1CCC(=O)NCCC[C@@H](C(=O)O)NC(=O)[C@H](Cc2c[nH]c3ccccc23)NC(=O)[C@H](CCCNC(=N)N)NC(=O)[C@@H](Cc2ccccc2)NC(=O)[C@H](COCc2ccccc2)NC1=O [Compound 6, Ac-Arg-cyclo(Glu-Ser(Bzl)-D-Phe-Arg-Trp-Orn)-OH]

EC50 (cAMP accumulation, HEK-293 cells expressing hMC4-R) [5]: 2 nM
intrinsic activity (cAMP accumulation, HEK-293 cells expressing hMC4-R) [5]: 47%
B1: cyclic peptide of Compound 7, Ac-Arg-cyclo(Orn-Ser(Bzl)-D-Phe-Arg-Trp-Glu)-OH (peptide)
peptide: Ac-R[Orn][Ser(Bzl)][dF]RWE-OH
modifications: lactam 2-7; also: TFA salt

EC50 (cAMP accumulation, HEK-293 cells expressing hMC4-R) [6]: 10 nM
Ki [7]: 125 nM
B2: cyclic peptide of Compound 3, Ac-Arg-cyclo(Asp-Pro-D-Phe-Arg-Trp-Lys)-NH2 (peptide)
peptide: RDPXRWK
modifications: N-terminal acetyl (Ac); D-Phe at position 4; side-chain lactam cyclo(Asp2-Lys7); C-terminal amide (-NH2)
notes: Synthetic cyclic heptapeptide; prepared as TFA salt; also called No. 3

Ki [8]: 116 nM
B3: Ac-Arg-cyclo(Asp-Pro-D-Phe-Arg-trp-Lys)-OH (peptide)
peptide: RDPXRWK
modifications: not fully specified; N-terminal acetyl (Ac); D-Phe at position 4; side-chain lactam cyclo(Asp2-Lys7); C-terminal -OH; position 6 printed 'trp' in the table and in claim 5 but 'Trp' in the 2nd table
notes: Synthetic cyclic heptapeptide; also called Compound 8; No. 8
